This is an account of results in paper PMC7699860 (Molecules, 2020).

In the assay the test system is Tel-23 (DNA telomeric G4) (DNA, G4) TAGGGTTAGGGTTAGGGTTAGGG
Nature of the assay: UV melting at 290 nm. The following applies: K+ (KCl 50 mM), NaCac 2.5 mM, pH 6.5, G4 0.472 µM.

For orientation: ΔTm means the shift of the melting midpoint relative to a reference. For `CCN1[C]N(Cc2c3ccccc3cc3ccccc23)C=C1.CCN1[C]N(Cc2c3ccccc3cc3ccccc23)C=C1.[Au+]`, for the setting “CG4/CAu = 0.5, derived from two Tm (60 and 57)”, the thermal shift (ΔTm) was -3 °C.

In the case of `CCN1[C]N(Cc2c3ccccc3cc3ccccc23)C=C1.CCN1[C]N(Cc2c3ccccc3cc3ccccc23)C=C1.[Ag+]`, for the setting “CG4/CAg = 1.4, derived from two Tm (60 and 60)”, the ΔTm came to 0 °C.
